Laboratory results from article PMC9683047, “Design, synthesis and biological evaluation of 4-aminoquinoline derivatives as receptor-interacting protein kinase 2 (RIPK2) inhibitors” (Journal of Enzyme Inhibition and Medicinal Chemistry, 2022).

Experiments:
RIPK2 [1] = target: T1, RIPK2 (Homo sapiens, UniProt O43353); assay: Lipophilic ligand efficiency (LipE); conditions: LipE = pIC50 − ClogP
T1 construct: purchased Promega

RIPK2 [2] = target: T1, RIPK2; assay: RIPK2 kinase inhibition assay (ADP-Glo); format: biochemical; conditions: mean ± SD from two separate experiments
Description: RIPK2 kinase activity was analysed using the ADP-Glo™ Assay Kit (RIPK2 Kinase Enzyme System, Promega, USA). Reactions were performed according to the instructions. Specific signal was calculated by subtracting values in the wells without protein and inhibitor from the values in the test wells.

AO oxidase = target: T2, AO oxidase (Homo sapiens, UniProt Q06278); assay: AO oxidative metabolism in human liver cytosol; format: in vitro ADME; conditions: human liver cytosol incubation; inhibitors raloxifene and menadione
T2 construct: could undergo mono oxidative metabolism in the human liver cytosol incubation system; from tissue; host or cells: human liver cytosol
T2 sequence (Q06278 whole entry): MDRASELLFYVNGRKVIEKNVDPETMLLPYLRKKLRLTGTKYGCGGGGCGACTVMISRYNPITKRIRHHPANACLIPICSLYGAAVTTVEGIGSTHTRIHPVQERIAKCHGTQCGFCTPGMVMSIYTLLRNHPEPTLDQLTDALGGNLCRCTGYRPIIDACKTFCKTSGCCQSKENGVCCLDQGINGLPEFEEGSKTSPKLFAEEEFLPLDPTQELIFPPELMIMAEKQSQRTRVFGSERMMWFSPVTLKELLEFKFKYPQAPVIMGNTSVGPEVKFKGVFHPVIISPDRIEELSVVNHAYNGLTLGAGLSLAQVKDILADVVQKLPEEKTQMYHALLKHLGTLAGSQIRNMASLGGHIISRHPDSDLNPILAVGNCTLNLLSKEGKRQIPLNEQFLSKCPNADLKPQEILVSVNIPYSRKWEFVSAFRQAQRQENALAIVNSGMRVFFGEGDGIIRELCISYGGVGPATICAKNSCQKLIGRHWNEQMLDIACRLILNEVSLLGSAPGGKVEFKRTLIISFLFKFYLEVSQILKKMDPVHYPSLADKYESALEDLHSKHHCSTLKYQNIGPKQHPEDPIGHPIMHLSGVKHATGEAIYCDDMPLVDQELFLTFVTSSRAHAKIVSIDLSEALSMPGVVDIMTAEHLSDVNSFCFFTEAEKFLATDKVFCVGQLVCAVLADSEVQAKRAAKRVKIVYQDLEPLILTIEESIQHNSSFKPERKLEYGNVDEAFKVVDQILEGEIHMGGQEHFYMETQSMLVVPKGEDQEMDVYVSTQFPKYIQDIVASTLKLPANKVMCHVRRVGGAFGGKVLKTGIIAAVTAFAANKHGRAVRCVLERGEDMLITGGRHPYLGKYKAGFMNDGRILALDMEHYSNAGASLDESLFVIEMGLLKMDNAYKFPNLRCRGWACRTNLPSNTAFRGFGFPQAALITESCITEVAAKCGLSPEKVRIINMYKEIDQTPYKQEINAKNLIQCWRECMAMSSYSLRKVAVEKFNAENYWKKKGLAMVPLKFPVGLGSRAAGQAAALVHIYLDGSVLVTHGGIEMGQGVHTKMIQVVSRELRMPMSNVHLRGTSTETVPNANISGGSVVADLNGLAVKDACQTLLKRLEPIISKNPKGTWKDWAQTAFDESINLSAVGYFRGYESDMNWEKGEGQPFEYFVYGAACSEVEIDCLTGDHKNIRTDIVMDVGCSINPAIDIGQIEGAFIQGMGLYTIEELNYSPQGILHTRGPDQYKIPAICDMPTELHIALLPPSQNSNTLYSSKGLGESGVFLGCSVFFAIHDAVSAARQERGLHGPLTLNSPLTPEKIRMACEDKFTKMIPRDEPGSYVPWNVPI
Description: However, we have done experiment on AO oxidative metabolism of compound 14 and P5. Both compound 14 and P5 could undergo mono oxidative metabolism in the human liver cytosol incubation system.

RIPK1 = target: T3, RIPK1 (Homo sapiens, UniProt Q13546); assay: RIPK1 inhibition rate at 1 µM; format: biochemical
T3 sequence (Q13546 1-671): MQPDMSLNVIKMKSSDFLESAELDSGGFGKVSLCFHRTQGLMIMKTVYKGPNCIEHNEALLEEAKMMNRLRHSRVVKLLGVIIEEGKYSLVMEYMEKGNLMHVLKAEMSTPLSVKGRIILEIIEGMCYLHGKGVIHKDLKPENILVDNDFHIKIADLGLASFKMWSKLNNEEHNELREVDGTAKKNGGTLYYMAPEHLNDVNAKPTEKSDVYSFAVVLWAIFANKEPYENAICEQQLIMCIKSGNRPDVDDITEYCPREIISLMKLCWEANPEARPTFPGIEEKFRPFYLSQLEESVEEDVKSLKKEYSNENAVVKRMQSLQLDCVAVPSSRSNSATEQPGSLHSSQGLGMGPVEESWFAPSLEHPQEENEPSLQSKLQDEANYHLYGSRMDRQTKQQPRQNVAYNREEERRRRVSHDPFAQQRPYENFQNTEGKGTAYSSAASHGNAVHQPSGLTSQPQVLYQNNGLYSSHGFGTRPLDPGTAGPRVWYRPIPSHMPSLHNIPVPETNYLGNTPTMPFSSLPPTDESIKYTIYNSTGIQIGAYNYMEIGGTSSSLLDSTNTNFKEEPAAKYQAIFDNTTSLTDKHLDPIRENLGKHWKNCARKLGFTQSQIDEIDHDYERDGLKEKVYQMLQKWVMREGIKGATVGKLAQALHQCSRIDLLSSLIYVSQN
Description: Table 4. Selectivity, ClogP and LipE of compound 14, 15, 21, 32, 36. | column: RIPK1 IR@1µM (%)

[3] = test system: MDP-induced TNF-α secretion in Raw264.7; assay: TNF-α secretion in MDP-induced Raw264.7 (ELISA); format: cell-based, mouse; conditions: Raw264.7, compounds 1 h then L18-MDP 20 µg/mL 24 h, series concentration
Description: Raw 264.7 was cultured in DMEM containing 10% (w/v) foetal bovine serum (FBS). Cell were seeded at a density of 1 × 10^5 cells/well in a 48 well plate overnight, then cells were treated with different concentrations of compounds for1h, following by stimulated with L18-MDP (20 µg/mL, Invivogen) for 24 h. The Cell supernatants were harvested for enzyme-linked immunosorbent assay (ELISA).
TNFα commercial ELISA kits (DAKEWE) were used to detect TNFα in cell culture supernatants according to the manufacturer’s instructions. The concentration of cytokines was determined using multiwell spectrophotometer (SpetraMAX PLUS, Molecular Devices).

T1 sequence (O43353 whole entry): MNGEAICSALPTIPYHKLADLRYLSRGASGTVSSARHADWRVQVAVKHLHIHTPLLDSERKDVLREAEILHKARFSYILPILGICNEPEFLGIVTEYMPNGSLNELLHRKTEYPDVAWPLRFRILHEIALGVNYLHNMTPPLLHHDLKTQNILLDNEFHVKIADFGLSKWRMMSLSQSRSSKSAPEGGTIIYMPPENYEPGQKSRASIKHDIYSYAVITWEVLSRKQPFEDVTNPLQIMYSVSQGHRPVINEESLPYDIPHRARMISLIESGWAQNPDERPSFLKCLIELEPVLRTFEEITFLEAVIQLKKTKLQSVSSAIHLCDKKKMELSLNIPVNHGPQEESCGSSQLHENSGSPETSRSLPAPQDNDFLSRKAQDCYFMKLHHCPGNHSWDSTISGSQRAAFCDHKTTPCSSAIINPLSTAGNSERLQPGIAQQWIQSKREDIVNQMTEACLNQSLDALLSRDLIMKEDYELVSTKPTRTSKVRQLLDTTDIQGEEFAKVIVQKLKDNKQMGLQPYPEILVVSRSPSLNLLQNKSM

Structure (SMILES)	LipE (RIPK2 [1])	IC50 (RIPK2 [2]) [nM]	AO oxidase substrate (AO oxidase)	RIPK1 IR@1µM (%) (RIPK1)	inhibition of MDP-induced TNF-α secretion [3]
CC(C)(C)S(=O)(=O)c1cc2c(Nc3ccc4scnc4c3)ncnc2cc1OCCO [Compound P5, reference compound]	6.70	2.6 ± 1.2	metabolic substrates of AO oxidase		
c1cncc(-c2ccc3nccc(Nc4ccc5scnc5c4)c3c2)c1 [Compound 15, N-(6-(pyridin-3-yl)quinolin-4-yl)benzo[d]thiazol-5-amine]	4.27	6 ± 1.5		<1	almost no inhibition
